Experimental findings from patent publication US20040242870A1, “Antiviral methods and compounds” (priority 2000, published 2004) are described below.

Like-named read-outs stand apart in the source and are kept apart here.

This data set deals with HeLa CD4 LTR β-gal cells. Put plainly: Compound toxicity in attachment assay (MTS dye reduction, sister plates). The class given is cell-based. The following applies: read-out: TC50 (the source's name). As to the method:
At assay termination the assay plates were stained with the soluble tetrazolium-based dye MTS (CellTiter96® Reagent Promega) to determine cell viability and quantify compound toxicity. MTS is metabolized by the mitochondria enzymes of metabolically active cells to a soluble formazan product, allowing the rapid quantitative analysis cell viability and compound cytotoxicity. […] At termination of the assay 20 μL of MTS reagent was added per well and incubated for 4 h at 37° C. Adhesive plate sealers were used in place of the lids, the sealed plate was inverted several times to mix the soluble formazan product and the plate was read spectrophotometrically at 490 nm with a Molecular Devices Vmax plate reader.
The attachment assay was performed with the HeLa CD4 LTR , β-gal cells available from the AIDS Research and Reference Reagent Repository. […] HeLa CD4 LTR β-gal cells express cell surface CD4 and contain an LTR β-galactosidase reporter construct. Upon infection either the Tat protein incorporated into the virion or new Tat produced following virus integration and transcription trans-activates the LTR β-gal reporter, leading to expression of the β-galactosidase enzyme. HeLa CD4 LTR β-gal cells are routinely cultured with the required selection antibiotics and screened for mycoplasma contamination. Twenty-four h prior to initiation of the assay cells were trypsinized, counted and 1×10^4 cells placed in a 0.2 cm well in media without selection antibiotics. Media was removed at 24 h and compound in media placed on the cells and incubated for 15 to 30 min at 37° C. A known titer of virus was then added to the wells and the incubation continued for 1 h. At the end of the incubation the wells were washed 6 times with media and the culture continued for 48 h. At 48 h the wells were washed one time with PBS and β-galactosidase enzyme expression determined by chemiluminescence per manufacturers instructions (Tropix Gal-screen™, Tropix, Bedford, Mass.). Compound toxicity was monitored on sister plates using MTS dye reduction.
A general note: Tetrazolium dyes change colour on reduction, which living cells bring about.

Regarding `CC(C)=CCCC1(C)CCc2c(O)cc(C(C)(C)CCCC(C)C)cc2O1` (stereo not drawn) [IG-08, 3,4-Dihydro-2-methyl-2-(4-methyl-3-pentenyl)-7-(1,1,5-trimethylhexyl)-2H-1-benzopyran-5-ol], the CC50 is, setting by setting: (Experiment 1, pretreat 0 h) over 50 µM; (Experiment 1, pretreat 4 h) over 50 µM; (Experiment 1, pretreat 24 h) over 50 µM; (Experiment 2, pretreat 0 h) over 50 µM; (Experiment 2, pretreat 4 h) 29 µM; (Experiment 2, pretreat 24 h) 12.2 µM.
